Laboratory results published in Sander's compilation of Henry's law constants (doi:10.1002/etc.5620090606).

Assay: Henry solubility constant Hcp at 298.15 K (mol/(m3 Pa))
Settings: reference: Fendinger and Glotfelty (1990)

SMILES | Henry solubility constant Hcp
C1=Cc2cccc3cccc1c23 [acenaphthylene] | 0.088
COP(=S)(OC)Oc1ccc([N+](=O)[O-])cc1 [methylparathion] | 160
Clc1ccc(-c2ccc(Cl)cc2)cc1 [4,4'-dichlorobiphenyl] | 0.1
c1ccc2c(c1)Cc1ccccc1-2 [2,3-benzindene] | 0.16
c1ccc2ccccc2c1 [naphthalene] | 0.013
c1ccc2cc3ccccc3cc2c1 [anthracene] | 0.51
Cc1ccc2ccccc2c1 [2-methylnaphthalene] | 0.031
CCC(CC)Nc1c([N+](=O)[O-])cc(C)c(C)c1[N+](=O)[O-] [penoxaline] | 12
CCOC(=O)CC(SP(=S)(OC)OC)C(=O)OCC (stereo unspecified) [malathion] | 2000
Clc1ccccc1-c1ccccc1Cl [2,2'-dichlorobiphenyl] | 0.04
c1cc2c3c(cccc3c1)CC2 [acenaphthene] | 0.16
CCOP(=S)(OCC)Oc1nc(Cl)c(Cl)cc1Cl [chlorpyrifos] | 2.4
c1ccc2c(c1)ccc1ccccc12 [phenanthrene] | 0.42
CCOP(=S)(OCC)Oc1ccc([N+](=O)[O-])cc1 [parathion] | 120
c1ccc(-c2ccccc2)cc1 [biphenyl] | 0.051
Cc1cccc2ccccc12 [1-methylnaphthalene] | 0.016
